Measured values published in patent US11497212B2, “Substituted thiophenyl uracils, salts thereof and the use thereof as herbicidal agents” (Syngenta Crop Protection AG, priority 2017, dated 2022).

Key:
Type in all cases: in vivo
Abutilon theophrasti = assay: Herbicidal action post-emergence (greenhouse pot trial); conditions: application rate 20 g/ha, scored visually after about 3 weeks vs untreated controls
Method: (§1) Seeds of mono- and dicotyledonous weed plants and crop plants are laid out in sandy loam soil in plastic or wood-fiber pots, covered with earth and grown under controlled growth conditions in a greenhouse. 2 to 3 weeks after sowing, the trial plants are treated at the one-leaf stage. The compounds of the invention formulated in the form of wettable powders (WP) or emulsion concentrates (EC) were then sprayed onto the green parts of the plant as an aqueous suspension or emulsion with addition of 0.5% additive at a water application rate equivalent to 600 L/ha. After the trial plants had stood for about 3 weeks in the greenhouse, under optimal growth conditions, the effect of the preparations was scored visually by comparison with untreated controls. For example, 100% efficacy=plants have died, 0% efficacy=like control plants. Tables A1 to A15 below show the efficacies of selected compounds of the general formula (I) according to tables I.1 to I.60 on various harmful plants and an application rate corresponding to 80 g/ha or lower that were obtained by the aforementioned trial method.

Amaranthus retroflexus = assay: as above; conditions: application rate 20 g/ha, scored visually after about 3 weeks vs untreated controls
Method: as §1

Matricaria inodora = assay: as above; conditions: application rate 20 g/ha, scored visually after about 3 weeks vs untreated controls
Method: as §1

Stellaria media = assay: as above; conditions: application rate 20 g/ha, scored visually after about 3 weeks vs untreated controls
Method: as §1

Veronica persica = assay: as above; conditions: application rate 20 g/ha
Method: as §1

Viola tricolor = assay: as above; conditions: application rate 20 g/ha
Method: as §1

Oryza sativa = assay: Crop compatibility post-emergence (greenhouse pot trial)
Method: as §1, with “plants.” for “plants. Tables A1 to A15 below show the efficacies of selected compounds of the general formula (I) according to tables I.1 to I.60 on various harmful plants and an application rate corresponding to 80 g/ha or lower that were obtained by the aforementioned trial method.”
(§2) Crop plant compatibilities were also scored correspondingly.
(§3) The effects observed are reported here on selected crop plants by comparison with the untreated controls (values in %).

Pharbitis purpurea = assay: Herbicidal action post-emergence (greenhouse pot trial); conditions: application rate 20 g/ha
Method: as §1

Polygonum convolvulus = assay: as above; conditions: application rate 20 g/ha, scored visually after about 3 weeks vs untreated controls
Method: as §1

Triticum aestivum = assay: Crop compatibility post-emergence (greenhouse pot trial)
Method: as §1, with “plants.” for “plants. Tables A1 to A15 below show the efficacies of selected compounds of the general formula (I) according to tables I.1 to I.60 on various harmful plants and an application rate corresponding to 80 g/ha or lower that were obtained by the aforementioned trial method.”
as §2, §3

Setaria viridis = assay: Herbicidal action post-emergence (greenhouse pot trial); conditions: application rate 20 g/ha, scored visually after about 3 weeks vs untreated controls
Method: as §1

Digitaria sanguinalis = assay: as above; conditions: application rate 20 g/ha
Method: as §1

Echinochloa crus-galli = assay: as above; conditions: application rate 20 g/ha, scored visually after about 3 weeks vs untreated controls
Method: as §1

Row | Structure (SMILES) | Abutilon theophrasti (Efficacy in %) (Abutilon theophrasti) [%] | Amaranthus retroflexus (Efficacy in %) (Amaranthus retroflexus) [%] | Matricaria inodora (Efficacy in %) (Matricaria inodora) [%] | Stellaria media (Efficacy in %) (Stellaria media) [%] | Veronica persica (Efficacy in %) (Veronica persica) [%] | Viola tricolor (Efficacy in %) (Viola tricolor) [%] | Oryza sativa (Efficacy in %) (Oryza sativa; application rate 20 g/ha) [%] | Pharbitis purpurea (Efficacy in %) (Pharbitis purpurea) [%] | Polygonum convolvulus (Efficacy in %) (Polygonum convolvulus) [%] | Triticum aestivum (Efficacy in %) (Triticum aestivum; application rate 20 g/ha) [%] | Setaria viridis (Efficacy in %) (Setaria viridis) [%] | Digitaria sanguinalis (Efficacy in %) (Digitaria sanguinalis) [%] | Triticum aestivum (Efficacy in %) (Triticum aestivum; application rate 5 g/ha) [%] | Echinochloa crus-galli (Efficacy in %) (Echinochloa crus-galli) [%] | Oryza sativa (Efficacy in %) (Oryza sativa; application rate 5 g/ha) [%]
1 | CC(Sc1cc(-n2c(=O)cc(C(F)(F)F)n(C)c2=O)c(F)cc1Cl)C(=O)NCC1COCCO1 (stereo not shown) [I.1-331] | 100 | 100 | 90 | 80 | 100 | 100 | 10 | – | – | – | – | – | – | – | –
2 | CC(CC(=O)OCC1CCCO1)Sc1cc(-n2c(=O)cc(C(F)(F)F)n(C)c2=O)c(F)cc1Cl (stereo not shown) [I.49-71] | 100 | 100 | 100 | 100 | 100 | 100 | 10 | 100 | 100 | 20 | – | – | – | – | –
3 | CC1CC(COC(=O)C(C)(C)CSc2cc(-n3c(=O)cc(C(F)(F)F)n(C)c3=O)c(F)cc2Cl)CO1 (stereo not shown) [I.48-73] | 100 | 100 | 80 | 100 | 100 | 100 | 0 | 100 | 80 | 0 | – | – | – | – | –
4 | CC(Sc1cc(-n2c(=O)cc(C(F)(F)F)n(C)c2=O)c(F)cc1Cl)C(=O)NCCCOCc1ccccc1 (stereo not shown) [I.1-180] | 100 | 100 | 100 | 90 | 100 | 100 | 0 | 100 | 100 | 20 | – | – | – | – | –
5 | CC(CC(=O)OCC1CCOC1)Sc1cc(-n2c(=O)cc(C(F)(F)F)n(C)c2=O)c(F)cc1Cl (stereo not shown) [I.49-72] | 100 | 100 | 90 | – | 100 | 100 | 10 | – | – | – | – | – | – | – | –
6 | CCC(Sc1cc(-n2c(=O)cc(C(F)(F)F)n(C)c2=O)c(F)cc1Cl)C(=O)OCC1COC(C)C1 (stereo not shown) [I.2-73] | 100 | 100 | 100 | 100 | 100 | 100 | 10 | – | 100 | – | 90 | – | – | – | –
7 | CC(Sc1cc(-n2c(=O)cc(C(F)(F)F)n(C)c2=O)c(F)cc1Cl)C(=O)NCC1CCCCO1 (stereo not shown) [I.1-241] | 100 | 100 | 100 | 100 | 100 | 100 | 10 | – | 100 | – | 100 | 100 | 20 | – | –
8 | Cn1c(C(F)(F)F)cc(=O)n(-c2cc(SCC(C)(C)C(=O)OCC3CCSC3)c(Cl)cc2F)c1=O (stereo not shown) [I.48-82, Tetrahydrothiophen-3-ylmethyl 3-({2-chloro-4-fluoro-5-[3-methyl-2,6-dioxo-4-(trifluoromethyl)-3,6-dihydropyrimidin-1(2H)-yl]phenyl}sulfanyl)-2,2-dimethylpropanoate] | 100 | 100 | – | – | – | – | – | – | 100 | – | – | – | 0 | – | –
9 | Cc1c(C(F)(F)F)n(C)c(=O)n(-c2cc(SCC(C)(C)C(=O)NCC3CCCCO3)c(Cl)cc2F)c1=O (stereo not shown) [I.54-241] | 100 | 100 | – | 80 | 100 | – | 0 | – | 100 | 0 | 100 | 80 | – | – | –
10 | Cc1c(C(F)(F)F)n(C)c(=O)n(-c2cc(SC(CC(C)C)C(=O)NCC3CCCO3)c(Cl)cc2F)c1=O (stereo not shown) [I.14-221] | 90 | 100 | 80 | – | 100 | 100 | 10 | 100 | 80 | 20 | – | – | – | – | –
11 | CC(CC(=O)NCC1CCCO1)Sc1cc(-n2c(=O)cc(C(F)(F)F)n(C)c2=O)c(F)cc1Cl (stereo not shown) [I.49-221] | 100 | 100 | 90 | 90 | 100 | – | 10 | 100 | 100 | – | – | – | – | – | –
12 | CCC(C)C(Sc1cc(-n2c(=O)cc(C(F)(F)F)n(C)c2=O)c(F)cc1Cl)C(=O)OCC1CCCCO1 (stereo not shown) [I.5-91] | 100 | 100 | 90 | – | 100 | 100 | – | 100 | 90 | 10 | 90 | – | – | 80 | –
13 | CC(Sc1cc(-n2c(=O)cc(C(F)(F)F)n(C)c2=O)c(F)cc1Cl)C(=O)NC1CCCOC1 (stereo not shown) [I.1-276] | 100 | 100 | 100 | 100 | 100 | 100 | – | – | 100 | – | 100 | – | – | – | 10
